One assay concerns BCAR4-expressing cells. Nature of the assay: Cell growth under lapatinib treatment (FIG. 42). The class given is cell-based. As to conditions: BCAR4-expressing cells treated with lapatinib. The source says: In breast cancer HER3 preferentially binds to HER2 to form a heterodimer.
Assay [1] has as its system ZR751 cells overexpressing BCAR4 full length or gene fusions. Nature of the assay: Cell viability under lapatinib treatment (FIG. 24). The class given is cell-based. As to conditions: ZR751 cells overexpressing BCAR4 full length or gene fusions vs control cells without BCAR4, increased lapatinib.
For assay [2], the system named is HER2/HER3 signaling in ZR-75-1 cells. In words: Western blot of HER3/AKT signaling in lapatinib-treated cells (FIG. 29D). As to conditions: ZR-75-1 cells expressing full length BCAR4 or gene fusions. The arrangement: dose or concentration left out as unconfirmed. The class given is cell-based.
Procedure: Antibodies against FLAG (2368S; RRID:AB_2217020, 1:1000; Cell Signaling Technology), actin (3700S; RRID:AB_2242334, 1:10,000; Cell Signaling Technology), Goat anti-mouse or anti-rabbit peroxidase-conjugated secondary antibodies (Thermo Fisher Scientific) were used for experiments. Protein samples were prepared with ice-cold RIPA lysis buffer (25 mmol/L Tris pH7.5, 1% NP40, 0.1% SDS, 150 mmol/L NaCl, 0.5% sodium deoxycholate, and 1× Halt Protease Inhibitor Cocktail; Thermo Fisher Scientific). Lysate was subjected to a short sonication and then clarified by centrifugation at maximum speed, 4° C. for 10 minutes. Protein concentration was determined with the DC Protein Assay (BioRad). Samples were diluted in loading buffer, boiled, and equal protein concentrations (20-30 mg) loaded and resolved by SDS-polyacrylamide gel electrophoresis in 12% or 4% to 12% Bolt Bis-Tris precast gels (Invitrogen). Gels were transferred at 60° C. for 1 hour to a nitrocellulose membrane (BioRad). Proteins were detected with specific antibodies and visualized and quantified on the ChemDoc MP Imaging System (BioRad) using secondary antibodies and Clarity Western ECL Substrate (Thermo Fisher Scientific).
Assay [3] has as its system patients expressing BCAR4. The settings on record: letrozole (AI treatment); public data GSE41994; FIG. 39; cited from earlier work.
The test system of assay [4] is MCF7 (ER+/HER2-negative) cells expressing full length BCAR4 or LITAF-BCAR4 gene fusion. Nature of the assay: Tamoxifen treatment of BCAR4-overexpressing breast cancer cells (FIG. 37). The settings on record: in vitro. The class given is cell-based. The source says:
FIG. 37 is a graph showing BCAR4 gene fusion-expressing cells are resistance to Tamoxifen treatment in breast cancer in accordance with the present disclosure. MCF7 (ER+/HER2-negative) overexpressing cell lines expressing full length BCAR4 (B4) or LITAF-BCAR4 gene fusion (LB) were used.
BCAR4 gene fusion-expressing cells are resistant to Tamoxifen treatment in breast cancer (see e.g., FIG. 37). It is known that full length BCAR4 is resistant to tamoxifen therapy, but no one has shown that BCAR4 gene fusions cause resistance. BCAR4-fusions express only the 4th exon of BCAR4 gene.

The next assay relates to breast cancer patients. In words: Survival analysis of tamoxifen-treated breast cancer patients by BCAR4 expression. The class given is in vivo, human. The text has this:
FIG. 25 is a survival curve showing BCAR4-positive patients (blue) have worse outcome when treated with tamoxifen in accordance with the present disclosure.
BCAR4+ is categorized as the top 20% and BCAR4− as the bottom 80%.

Molecules are shown by their SMILES. Entries after “also recorded” stand apart in the source; their conditions may differ.

As for `CS(=O)(=O)CCNCc1ccc(-c2ccc3ncnc(Nc4ccc(OCc5cccc(F)c5)c(Cl)c4)c3c2)o1` [lapatinib], the cell growth entry in the assay on BCAR4-expressing cells was “decreased growth”. The cell viability result in assay [1] is given as “decreased cell viability”. Moreover, the “phosphorylation of HER3 and downstream activation of AKT” value in assay [2] is on record as “attenuated these changes; also recorded: inhibited”; in assay [2] (listed as Lapatinib), “lose HER3 activation”.

Regarding `N#Cc1ccc(C(c2ccc(C#N)cc2)n2cncn2)cc1` [letrozole], in assay [3], the “Progression Free Survival of top 25% of patients expressing BCAR4” value is “worse Progression Free Survival”.

As to `CC/C(=C(\c1ccccc1)c1ccc(OCCN(C)C)cc1)c1ccccc1` [tamoxifen], the “response to Tamoxifen treatment” value in assay [4] is “resistant”. Besides, the “outcome of BCAR4-high patients” value with breast cancer patients (tamoxifen only treatment, TCGA cohort (n=186), FIG. 35) was “worse outcomes”. Also, in the assay with breast cancer patients (tamoxifen treatment, GSE6532 cohort, FIG. 36), the “distant metastasis free survival of BCAR4-high patients” value was “worse distant metastasis free survival”. In addition, the “outcome of early stage BCAR4-positive vs BCAR4-negative patients” value with breast cancer patients (tamoxifen, microarray data of early-stage breast cancer patients, FIG. 25) is listed as “poor outcome”.

(Values after patent US20240124610A1, “METHODS FOR TREATING HER2-NEGATIVE OR HER2-LOW CANCER” (Washington University, priority 2022, published 2024).)
